{"source": "patent US10746739B2", "about": "“Identification of novel diagnostics and therapeutics by modulating RhoH” (Leukemia Therapeutics, LLC, priority 2015, dated 2020)", "system": "pre-existing HCL tumors (JOK-Luc)", "test": "Intraperitoneal JOK-Luc HCL xenograft treated with antibody, luminescence imaging", "format": "in vivo", "settings": "JOK-Luc injected into peritoneum of Hsd:Athymic Nude-Foxn1nu mice; antibody intraperitoneally at day 4 and day 6; imaged at day 7; compared with control IgG antibody", "protocol": "JOK-1 cells were stably transfected with the plasmid pGL4.5[Luc2/CMV/Neo] that contains the firefly luciferase gene under control of the constitutive gene promoter of cytomegalovirus. This luciferase cell line was then injected into the peritoneum of mice of the strain Hsd:Athymic Nude-Foxn1^nu. After 3 days, mice were subjected to whole body imaging following intravenous injection of D-Luciferin. Those mice where tumor was detected were intraperitoneally injected at day 4 and day 6 with the anti-CD38 antibody SAR650984 or an IgG control antibody. At day 7, mice were again imaged. Depicted are superimposed luminescence and X-ray images of three mice injected with SAR650984 (CD38) and three injected with the control antibody (Ctrl).\nExperiments performed with JOK-CD38-KO indicate that targeting CD38 expression in HCL may have therapeutic efficacy. This was tested using the parent of JOK-CD38-KO where CD38 expression remained intact. The parental line was engineered such that it constitutively produced luciferase and, therefore, could be visualized by luminescence in the presence of luciferin. […]\nThe role of CD38 in HCL was assessed using 5×10^6 of the cell line pools JOK-CD38-WT or JOK-CD38-KO injected subcutaneously into male or female mice that were 6-8 weeks old and of the strain NOD.Cg-Prkdc^scid IL2rγ^tm1Wj1/SzJ (Jackson Laboratory, Bar Harbor, Me., USA). […]", "data": [{"substance": "SAR650984: humanized anti-CD38 antibody SAR650984 (Sanofi Oncology)", "values": [{"measurement": "effect on pre-existing HCL tumors by luminescence imaging", "result": "tended to be reduced"}]}]}
